Laboratory results from ChEMBL document CHEMBL4819147, “Design, synthesis and biological evaluation of novel molecules as potent PARP-1 inhibitors” (Bioorg Med Chem Lett, 2021).
Each block holds one compound with its values, some of them ahead of it.

How the values were obtained:
[1] = target: T1, Poly [ADP-ribose] polymerase 1 (Homo sapiens, UniProt P09874); assay: Inhibition of PARP1 (unknown origin)
[2] = target: T1, Poly [ADP-ribose] polymerase 1; assay: Inhibition of PARP1 (unknown origin) at 10 nM relative to control
HCT-116 [3] = assay: Antiproliferative activity against BRCA2-deficient human HCT116 cells assessed as cell growth inhibition; type: functional, cell-based
[4] = Octanol-water partition coefficient, logP of the compound; type: physicochemical
HCC1937 = assay: Antiproliferative activity against BRCA1-deficient human HCC1937 cells assessed as cell growth inhibition; type: functional, cell-based
HCT-116 [5] = assay: Potency index, ratio of olaparibIC50 to test compound IC50 for antiproliferative activity against BRCA2-deficient human HCT116 cells assessed as cell growth inhibition; type: functional
[6] = Half life in human liver microsomes incubated for 50 mins; type: ADME, Microsome
[7] = Intrinsic clearance in human liver microsomes incubated for 50 mins; type: ADME, Microsome

T1 sequence (P09874 whole entry): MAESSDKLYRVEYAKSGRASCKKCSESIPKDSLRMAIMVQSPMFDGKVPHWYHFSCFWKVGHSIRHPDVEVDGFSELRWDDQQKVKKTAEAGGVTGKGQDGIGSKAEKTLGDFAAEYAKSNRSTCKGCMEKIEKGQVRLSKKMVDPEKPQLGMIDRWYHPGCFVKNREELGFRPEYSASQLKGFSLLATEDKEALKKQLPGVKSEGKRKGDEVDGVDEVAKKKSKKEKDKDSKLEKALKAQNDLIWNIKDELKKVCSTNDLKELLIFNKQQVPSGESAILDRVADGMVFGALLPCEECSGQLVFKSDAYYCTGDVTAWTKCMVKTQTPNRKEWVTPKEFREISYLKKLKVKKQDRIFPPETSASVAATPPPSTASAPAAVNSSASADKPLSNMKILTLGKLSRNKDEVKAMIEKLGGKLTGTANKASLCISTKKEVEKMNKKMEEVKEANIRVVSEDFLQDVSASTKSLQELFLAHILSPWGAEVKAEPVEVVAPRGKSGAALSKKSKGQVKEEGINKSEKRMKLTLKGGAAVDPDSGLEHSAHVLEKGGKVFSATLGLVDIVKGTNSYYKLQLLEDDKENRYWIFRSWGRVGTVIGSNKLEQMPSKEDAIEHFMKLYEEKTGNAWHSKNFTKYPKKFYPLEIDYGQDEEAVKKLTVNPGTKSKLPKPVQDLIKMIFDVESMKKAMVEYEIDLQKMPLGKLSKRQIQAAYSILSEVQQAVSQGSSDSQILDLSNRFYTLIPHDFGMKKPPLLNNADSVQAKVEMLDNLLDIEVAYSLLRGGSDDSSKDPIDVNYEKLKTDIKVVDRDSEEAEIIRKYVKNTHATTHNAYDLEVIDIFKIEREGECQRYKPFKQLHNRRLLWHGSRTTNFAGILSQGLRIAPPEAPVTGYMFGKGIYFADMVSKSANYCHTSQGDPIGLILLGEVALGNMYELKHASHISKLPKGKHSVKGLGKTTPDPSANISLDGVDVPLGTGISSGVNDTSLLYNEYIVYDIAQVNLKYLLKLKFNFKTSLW

SMILES: O=C(c1cc(Cc2n[nH]c(=O)c3ccccc23)ccc1F)N1CCN(c2nc3ccccc3[nH]2)CC1
IC50 (HCT-116 [3]): 490 nM | IC50 [1]: 0.19 nM | inhibition [2]: 100% | logP [4]: 4.15 | IC50 (HCC1937): 610 nM

SMILES: O=C(c1cc(Cc2n[nH]c(=O)c3ccccc23)ccc1F)N1CCn2c(nc3ccc(F)cc32)C1
IC50 (HCT-116 [3]): 6.62 nM | IC50 [1]: 0.51 nM | logP [4]: 4.83 | Ratio IC50 (HCT-116 [5]): 885 | half-life [6]: 2.89 h | CLH [7]: 40 µL/min/mg | IC50 (HCC1937): 12.7 nM

SMILES: O=c1[nH]nc(Cc2ccc(F)c(CN3CCC(c4nc5ccccc5[nH]4)CC3)c2)c2ccccc12
inhibition [2]: 47%

SMILES: O=c1[nH]nc(Cc2ccc(F)c(CN3CCN(c4nc5ccccc5[nH]4)CC3)c2)c2ccccc12
inhibition [2]: 42%

SMILES: Cc1ccc2nc3n(c2c1)CCN(C(=O)c1cc(Cc2n[nH]c(=O)c4ccccc24)ccc1F)C3
IC50 (HCT-116 [3]): 10 nM | IC50 [1]: 0.47 nM | IC50 (HCC1937): 11.6 nM

SMILES: O=C(c1cc(Cc2n[nH]c(=O)c3ccccc23)ccc1F)N1CCn2c(nc3ccccc32)C1
IC50 [1]: 0.49 nM

SMILES: O=C(c1cc(Cc2n[nH]c(=O)c3ccccc23)ccc1F)N1CCn2c(nc3ccc(Cl)cc32)C1
IC50 (HCT-116 [3]): 11.9 nM | IC50 [1]: 0.4 nM | IC50 (HCC1937): 11.7 nM

More lines, now with the values ahead:

IC50 [1]: 0.63 nM | inhibition [2]: 100%
SMILES: O=C(c1cc(Cc2n[nH]c(=O)c3ccccc23)ccc1F)N1CCC(c2nc3ccccc3[nH]2)CC1

IC50 (HCT-116 [3]): 5860 nM | logP [4]: 2.79 | IC50 (HCC1937): 13000 nM
SMILES: O=C(c1cc(Cc2n[nH]c(=O)c3ccccc23)ccc1F)N1CCN(C(=O)C2CC2)CC1 [OLAPARIB]

IC50 [1]: 1.7 nM | inhibition [2]: 100%
SMILES: CCOc1ncc(C(N)=O)c2nc(C3CCN(C(=O)c4cc(Cc5n[nH]c(=O)c6ccccc56)ccc4F)CC3)[nH]c12

IC50 (HCT-116 [3]): 161000 nM | IC50 [1]: 0.23 nM | IC50 (HCC1937): 130000 nM
SMILES: NC(=O)c1cncc2[nH]c(C3CCN(C(=O)c4cc(Cc5n[nH]c(=O)c6ccccc56)ccc4F)CC3)nc12

inhibition [2]: 40%
SMILES: COc1nnc(Cc2ccc(F)c(C(=O)N3CCC(c4nc5c(C(N)=O)cncc5[nH]4)CC3)c2)c2ccccc12

IC50 [1]: 2.4 nM | inhibition [2]: 98%
SMILES: COc1ncc(C(N)=O)c2nc(C3CCN(C(=O)c4cc(Cc5n[nH]c(=O)c6ccccc56)ccc4F)CC3)[nH]c12
